According to BindingDB's records for doi:10.1021/jm00070a001 (Warner-Lambert, 1993):
Where a SMILES comes first, the peptide text is derived from it. [ ]: non-standard residue; d: D form.

The molecules below were run against Endothelin-1 receptor (Oryctolagus cuniculus) (assay: Effective concentration against ET A receptor from rabbit renal artery vascular smooth muscle cells).

SMILES	IC50 [µM]
CC[C@H](C)[C@H](NC(=O)[C@H](CC(=O)O)NC(=O)[C@H](CC(C)C)NC(=O)[C@@H](Cc1ccccc1)NC(C)=O)C(=O)N[C@H](C(=O)NC(Cc1cnc[nH]1)C(=O)O)[C@@H](C)CC (mixture of isomers) [Ac-D-Phe-Leu-Asp-Ile-Ile-DL-His]	> 10
CC[C@H](C)[C@H](NC(=O)[C@H](CC(=O)O)NC(=O)[C@H](CC(C)C)NC(=O)[C@@H](Cc1ccccc1)NC(C)=O)C(=O)N[C@@H](Cc1c[nH]c2ccccc12)C(=O)O [(S)-3-[(R)-2-((1S,5S)-2-Acetylamino-3-phenyl-propionylamino)-4-methyl-pentanoylamino]-N-{(S)-1-[(S)-1-carboxy-2-(1H-indol-3-yl)-ethylcarbamoyl]-2-methyl-butyl}-succinamic acid] (Ac-[dF]LDIW-OH)	> 10
CC[C@H](C)[C@H](NC(=O)[C@@H](NC(=O)[C@@H](Cc1ccccc1)NC(C)=O)[C@@H](C)CC)C(=O)N[C@@H](Cc1c[nH]c2ccccc12)C(=O)O [Ac-D-Phe-Ile-Ile-Trp] (Ac-[dF]IIW-OH)	> 10
CC[C@H](C)[C@H](NC(=O)[C@H](CC(=O)O)NC(=O)[C@H](CC(C)C)NC(=O)[C@@H](Cc1ccccc1)NC(C)=O)C(=O)N[C@H](C(=O)N[C@@H](Cc1ccc(O)cc1)C(=O)O)[C@@H](C)CC [Ac-D-Phe-Leu-Asp-Ile-Ile-Tyr] (Ac-[dF]LDIIY-OH)	> 10
CC[C@H](C)[C@H](NC(=O)[C@H](CC(=O)O)NC(=O)[C@H](CC(C)C)NC(=O)[C@H](N)Cc1ccccc1)C(=O)N[C@H](C(=O)N[C@@H](Cc1c[nH]c2ccccc12)C(=O)O)[C@@H](C)CC [D-Phe-Leu-Asp-Ile-Ile-Trp]	> 10

Continued, values first:

IC50 [µM]	SMILES
0.4	CC[C@H](C)[C@H](NC(=O)[C@H](CC(=O)O)NC(=O)[C@H](CC(C)C)NC(=O)[C@@H](Cc1ccc(O)cc1)NC(C)=O)C(=O)N[C@H](C(=O)N[C@@H](Cc1c[nH]c2ccccc12)C(=O)O)[C@@H](C)CC (Ac-[dY]LDIIW-OH)
3.6	CC[C@H](C)[C@H](NC(=O)[C@H](C)NC(=O)[C@H](CC(=O)O)NC(=O)[C@H](CC(C)C)NC(=O)[C@@H](Cc1ccccc1)NC(C)=O)C(=O)N[C@@H](Cc1c[nH]c2ccccc12)C(=O)O [Ac-D-Phe-Leu-Asp-Ala-Ile-Trp] (Ac-[dF]LDAIW-OH)
8	CC[C@H](C)[C@H](NC(=O)[C@H](CC(=O)O)NC(=O)[C@H](CC(C)C)NC(=O)[C@@H](Cc1ccccc1)NC(C)=O)C(=O)N[C@@H](C)C(=O)N[C@@H](Cc1c[nH]c2ccccc12)C(=O)O [Ac-D-Phe-Leu-Asp-Ile-Ala-Trp] (Ac-[dF]LDIAW-OH)
14	CC[C@H](C)[C@H](NC(=O)[C@H](CC(=O)O)NC(=O)[C@H](CC(C)C)NC(=O)[C@@H](Cc1ccccc1)NC(C)=O)C(=O)N[C@H](C(=O)N[C@@H](Cc1csc2ccccc12)C(=O)O)[C@@H](C)CC [Ac-D-Phe-Leu-Asp-Ile-Ile-Bta]
